Test results taken from ChEMBL document CHEMBL3272296, “Quinazolines and 1,4-benzodiazepines. 82.1 5-Pyrimidyl-and 5-pyrazinylbenzodiazepines” (1977).

What was measured:
Format in all cases: functional
Mus musculus [1] = assay: CNS activity in po dosed mouse assessed as reduction in muscle relaxant activity by inclined screening method
Mus musculus [2] = assay: Anticonvulsant activity in po dosed mouse assessed as protection against pentylenetetrazole-induced seizures
Mus musculus [3] = assay: Anticonvulsant activity in po dosed mouse assessed as protection against maximal electroshock-induced seizures
Felis catus = assay: CNS activity in po dosed unanesthesized cat assessed as muscle relaxant activity; settings: read-out: MED
Mus musculus [4] = assay: CNS activity in po dosed mouse assessed as reduction in fighting behaviour

Structure (SMILES)	ED50 (Mus musculus [1]) [mg/kg]	ED50 (Mus musculus [2]) [mg/kg]	ED50 (Mus musculus [3]) [mg/kg]	minimal effective dose (Felis catus) [mg/kg]	ED50 (Mus musculus [4]) [mg/kg]
O=C1CN=C(c2ncccn2)c2cc(Cl)ccc2N1	500	1.75	520	2	100
CN1CCN=C(c2ncccn2)c2cc(Cl)ccc21	200	> 800	360	10	100
CN1CCN=C(c2ncccn2)c2cc([N+](=O)[O-])ccc21	250	93	> 800	20	> 100
CN1C(=O)CN=C(c2ccccc2)c2cc(Cl)ccc21 [DIAZEPAM]	30	1.4	22	0.2	10
Cc1cnc(C)c(C2=NCC(=O)Nc3ccc(Br)cc32)n1	> 400	37	> 800	10	50
O=C1CN=C(c2ccncn2)c2cc(Cl)ccc2N1	> 400	340	> 800	–	> 100
O=C1CN=C(c2ccccn2)c2cc(Br)ccc2N1 [BROMAZEPAM]	30	0.8	34	0.2	10
O=C1CN=C(c2cnccn2)c2cc(Cl)ccc2N1	300	7.4	> 800	10	50
CN1C(=O)CN=C(c2ncccn2)c2cc(Cl)ccc21	> 200	0.75	315	0.1	–
O=[N+]([O-])c1ccc2c(c1)C(c1ncccn1)=NCCN2	> 400	68	> 800	–	–
